Laboratory results as given in patent US20170349533A1 (F.I.S.- FABBRICA ITALIANA SINTETICI S.P.A, priority 2014, published 2017).
Values joined by “and” are separate entries in the source; they are usually repeats but may differ in a detail not shown here. Equal values may be shown once. “Also recorded” adds a separate entry of the source.

How the values were obtained:
[1] = Flowability through a glass funnel (in-house method); type: physicochemical
Experimental: Flowability was determined by an in-house method using a glass funnel (diameter 80 mm-stem diameter 10 mm-stem length 75 mm) with approximately 5 g of product repeating the process three times (in the cases in which flowability was observed). Different parameters were observed: • Flow or not • Need of percussion • Time to pass through the funnel

[2] = Particle size distribution by laser diffraction, wet dispersion; type: physicochemical
Source text: Different techniques can be used in order to determine the population size distribution (Microscopy image analysis, sieving, sedimentation . . . ). However laser diffraction particle size analyzer using light scattering is one of the most widely used. It is worth noting that each technique is liable to generate a different mean diameter as well as measuring different properties of the particle. Therefore it is very important to indicate the used technique when a result of mean size is given.
Particle size analysis by laser diffraction analyzer can be performed in wet or dry dispersion. However wet dispersion was selected because: • it allows to use only a small amount of sample, • it is recommended for fragile particles such as organic crystals.
Particle size distribution was analyzed in a Beckman Coulter LS13320 apparatus equipped with an Universal Liquid Module.
The particles have to be insoluble in the liquid used for the wet dispersion to avoid dissolution during the measurement.
40 mg of the sample were stirred in 25 ml of water and 3 drops of Triton X100 (to improve the wettability of the crystals and to avoid agglomeration during the analysis). If necessary, ultrasonic irradiation (bath 30 kHz and 200 W) was used for short time in order to break up any agglomerates or aggregates.

[3] = Bulk and tapped density (in-house method, filled space of 500 mg in a test tube); type: physicochemical
Experimental: Density was determined by an in-house method measuring the filled space by a sample of 500 mg in a test tube before and after hitting the tube (bulk and tapped density, respectively):
The compressibility index calculated from bulk and tapped densities can be used to estimate the flow characteristics of the powder. Following the rule described in the article Chem Eng 1965; 72:163-168, it can be considered that the flow character should be: • Excellent for Enclomiphene base having prismatic shaped crystal habit, • Passable for Enclomiphene base having non-prismatic shaped crystal habit (of example 19).

[4] = Hygroscopicity by DVS (Dynamic Vapour Sorption); type: physicochemical; details: 25° C.; for water uptake at 95% RH: 0-95% RH
Experimental: This is a gravimetric technique that measures how much water is absorbed or desorbed by a sample at different relative humidity (RH). At each RH, the sample mass must be allowed to reach gravimetric equilibrium (or surpassed time limit) before progressing to the next humidity level. Sorption and desorption isotherms will be performed at 25° C. over a range of 0-95% RH. The type of sorption isotherm is determined by the pore size and surface character of the material.

[5] = Filterability of suspension in ethanol; type: physicochemical; details: 40 mL of suspension in ethanol, on paper over a Buckner
Experimental: Enclomiphene having prismatic shaped crystal habit is indeed very well filterable, since, for example, the filtration (on paper over a Buckner) of 40 mL of suspensions containing of said solid in ethanol takes only 10 seconds.

[6] = Stability study of crystal habit by microscopy, three stability conditions for 30 days; type: physicochemical; details: 30 days at 60% RH, 75% RH-40° C., 95% RH
Source text: (B), and 95% RH (C), with reflected light (left) and transmitted light (right) (scale 500 μm).
Microscopy analysis of Enclomiphene base having prismatic shaped crystal habit exposed to three stability conditions for 30 days indicated the same colorless transparent prism as the starting product.

[7] = Kinetic solubility study at pH 4.5 (acetic acid/sodium acetate buffer, HPLC area); details: for Encl. Citr. average / solubility at pH 4.5 compared with Enclomiphene citrate having non-needle crystals: pH 4.5
Experimental: (§1) Solubility was determined by HPLC analysis, by comparison of the area corresponding to Enclomiphene HPLC peak.
(§2) To carry out the solubility studies, 400 mg of each product (not grinded) was stirred in water (24 ml, 60v) under the same conditions of stirring speed (magnetic stirring at 1000 rpm with a 2 cm “rugby shape” stir bar), flask used (round bottom flask of 50 ml of capacity with a 29/32 neck), etc. Alliquotes of ca 6 ml of suspension were filtered at different times: 15, 45, 90 and 180 min. After filtration, mother liquors were directly analyzed by HPLC (doing 2 replicates for each analysis) and its pH was determined. The filtered solid was analyzed by XRPD. The solubility analysis was repeated for each product and comparison of solubility was determined by the differences of HPLC area.
Solubility at a slightly acid medium was determined at pH 4.5 buffer used was a mixture acetic acid/sodium acetate prepared according to USP specifications.

[8] = Kinetic solubility study in water (HPLC area of Enclomiphene peak)
Experimental: as §1
For each solubility study, the following parameters were monitored: • intensity of Enclomiphene peak for each replicate of the assay • average value • standard deviation.
as §2
Below an HPLC method that allow to have a fast determination of Enclomiphene solubility:
These HPLC conditions were used to perform solubility analysis.

[9] = first run (example 19: with constant percussion)
[10] = first run, approx. 5 g, glass funnel
[11] = water + Triton X100, without sonication, listed as Sample 725
[12] = water + Triton X100, without sonication, listed as batch 725
[13] = water + Triton X100, without sonication, listed as Enclomiphene having prismatic shaped crystal habit
[14] = water + Triton X100, without sonication, listed as Sample 724
[15] = water + Triton X100, without sonication, listed as batch 724

CCN(CC)CCOc1ccc(/C(=C(/Cl)c2ccccc2)c2ccccc2)cc1 [Enclomiphene base (example 19), Enclomiphene]
Percussion needed? ([1]; first run): Yes (if constant) | time to pass through the funnel [1, 9]: 130 s | Flow? [1, 10]: No (static | flow through the funnel ([1]; listed as Enclomiphene having non-prismatic shaped crystal habit): did not flow | time to pass through the funnel ([1]; with percussion, listed as Enclomiphene having non-prismatic shaped crystal habit): 130 s | PSD D10 ([2]; 10 sec sonication): 0.100 μm | PSD D90 ([2]; 10 sec sonication): 1.942 μm | PSD Mean ([2]; 10 sec sonication): 0.715 μm | PSD Median (D50) ([2]; 10 sec sonication): 0.284 μm | PSD Mode ([2]; 10 sec sonication): 1.748 μm | PSD D10 [2, 11]: 5.819 μm | PSD D90 [2, 11]: 90.47 μm | PSD Mean [2, 11]: 36.79 μm | PSD Median (D50) [2, 11]: 24.96 μm | PSD Mode [2, 11]: 26.14 μm | PSD Mean [2, 12]: 36.79 μm | PSD Median (D50) [2, 12]: 24.96 μm | filled space of 500 mg in test tube ([3]; filled space of 500 mg in a test tube after hitting the tube, listed as Enclomiphene (example 19)): 13 mm | filled space of 500 mg in test tube ([3]; filled space of 500 mg in a test tube after hitting the tube, listed as Enclomiphene base having non-prismatic crystal habit): 13 mm | filled space of 500 mg in test tube ([3]; filled space of 500 mg in a test tube before hitting the tube, listed as Enclomiphene (example 19)): 17 mm | filled space of 500 mg in test tube ([3]; filled space of 500 mg in a test tube before hitting the tube, listed as Enclomiphene having non-prismatic crystal habit): 24 mm | Reduced space (bulk vs tapped) ([3]; listed as Enclomiphene (example 19)): 24%

CCN(CC)CCOc1ccc(/C(=C(/Cl)c2ccccc2)c2ccccc2)cc1 [Enclomiphene base (example 18), Enclomiphene]
hygroscopicity (in words) ([4]; whole range 0-95% RH): not hygroscopic | filtration time [5]: 10 s | Percussion needed? ([1]; first run): Yes | time to pass through the funnel [1, 9]: 15 s | Flow? [1, 10]: Yes | flow through the funnel ([1]; listed as Enclomiphene having prismatic shaped crystal habit): flowed through the funnel | Flow? ([1]; second run): Yes | Percussion needed? ([1]; second run): Yes | time to pass through the funnel ([1]; second run): 12 s | Flow? ([1]; third run): Yes | Percussion needed? ([1]; third run): yes | time to pass through the funnel ([1]; third run): 14 s | time to pass through the funnel ([1]; with percussion, listed as Enclomiphene having prismatic shaped crystal habit): 10 s | PSD D10 [2, 13]: 80 μm | PSD D90 [2, 13]: 770 μm | PSD D10 [2, 14]: 81.89 μm | PSD D90 [2, 14]: 770 μm | PSD Mean [2, 14]: 374.3 μm | PSD Median (D50) [2, 14]: 306.4 μm | PSD Mode [2, 14]: 356.1 μm | PSD Mean [2, 15]: 374.3 μm | PSD Median (D50) [2, 15]: 306.54 μm | stability of crystal habit [6]: remains stable at least one month | filled space of 500 mg in test tube ([3]; filled space of 500 mg in a test tube after hitting the tube, listed as Enclomiphene (example 18)): 8 mm | filled space of 500 mg in test tube ([3]; filled space of 500 mg in a test tube after hitting the tube, listed as Enclomiphene base having prismatic crystal habit): 8 mm | filled space of 500 mg in test tube ([3]; filled space of 500 mg in a test tube before hitting the tube, listed as Enclomiphene (example 18)): 8 mm | filled space of 500 mg in test tube ([3]; filled space of 500 mg in a test tube before hitting the tube, listed as Enclomiphene base having prismatic crystal habit): 8 mm | Reduced space (bulk vs tapped) ([3]; listed as Enclomiphene (example 18)): 0%

CCN(CC)CCOc1ccc(/C(=C(/Cl)c2ccccc2)c2ccccc2)cc1 [Enclomiphene acetate]
Encl. Citr. average ([7]; 0 min): 0 HPLC area | Encl. Citr. average ([7]; 15 min): 14069 HPLC area | Encl. Citr. average ([7]; 45 min): 13771 HPLC area | Encl. Citr. average ([7]; 90 min): 13708 HPLC area | Encl. Citr. average ([7]; 180 min): 13196 HPLC area

CCN(CC)CCOc1ccc(/C(=C(/Cl)c2ccccc2)c2ccccc2)cc1.O=C(O)CC(O)(CC(=O)O)C(=O)O [Enclomiphene citrate having needle crystals]
water uptake at 95% RH ([4]; listed as batch 723): 2.33 % weight and 2.3 % weight | solubility at pH 4.5 compared with Enclomiphene citrate having non-needle crystals [7]: 4 to 5 times | solubility at pH 4.5 compared with Enclomiphene citrate having non-needle crystals ([7]; listed as Enclomiphene citrate having needle shaped crystal habit): four times higher | Average a/a ([7]; pH = 4.5, 0 min): 0 a/a | Average a/a ([7]; pH = 4.5, 15 min): 4135 a/a | Average a/a ([7]; pH = 4.5, 45 min): 4024 a/a | Average a/a ([7]; pH = 4.5, 90 min): 5109 a/a | Average a/a ([7]; pH = 4.5, 180 min): 5079 a/a | solubility in water compared with Enclomiphene citrate having non-needle shaped crystal habit ([8]; water, listed as Enclomiphene citrate having needle shaped crystal habit): almost double; also recorded: almost two times

CCN(CC)CCOc1ccc(/C(=C(/Cl)c2ccccc2)c2ccccc2)cc1 [Enclomiphene base, Enclomiphene]
solubility in water (in words) [8]: highly insoluble

CCN(CC)CCOc1ccc(/C(=C(/Cl)c2ccccc2)c2ccccc2)cc1.O=C(O)CC(O)(CC(=O)O)C(=O)O [Enclomiphene citrate having non-needle crystals] [trans-Clomiphene monocitrate]
moisture sorption between 0% and 65% RH ([4]; 0-65% RH): 2 % weight | water uptake at 95% RH ([4]; listed as batch 722): 6 % weight | Average a/a ([7]; pH = 4.5, 0 min): 0 a/a | Average a/a ([7]; pH = 4.5, 15 min): 1185 a/a | Average a/a ([7]; pH = 4.5, 45 min): 924 a/a | Average a/a ([7]; pH = 4.5, 90 min): 1095 a/a | Average a/a ([7]; pH = 4.5, 180 min): 1052 a/a
